Patent publication US20090082398A1 (Teva Pharmaceutical Industries Ltd., priority 2004, published 2009)
Structures can show the parent of a compound that is named as a salt.

Columns and labels:
Format in all cases: physicochemical
[1] = Exposure of Form XX in controlled humidity cells, 9 days at 30 C, tested by XRD
[2] = Microscope observation of particle morphology; details: hydrochloride
Text: The morphology of an active pharmaceutical substance plays an important role in drug performance, and has a profound impact on handling during milling processes and during drug product manufacturing. […].

[3] = Exposure in controlled humidity cells, 7 days at room temperature, tested by XRD and KF titration; design: Water content: unit not given here; details: for Water content: KF titration
Protocol: 200 mg of Fexofenadine HCl Form XVI was spread as a thin layer on an open dish, and then put in controlled humidity cells of 0, 20, 40, 60 and 80% RH for 7 days at room temperature. The samples were tested by XRD and by KF titration.

[4] = Heating under atmospheric pressure, then tested by XRD; details: 10 h

CC(C)(C(=O)O)c1ccc(C(O)CCCN2CCC(C(O)(c3ccccc3)c3ccccc3)CC2)cc1 (centres unmarked) [Fexofenadine HCl Form XX, fexofenadine hydrochloride]
Crystal Form content by XRD ([1]; 40% RH): XVI + XX
Water content ([1]; 40% RH): 4.9
Crystal Form content by XRD ([1]; 60% RH): XVI + XX
Water content ([1]; 60% RH): 5.2
Crystal Form content by XRD ([1]; 80% RH): XVI
Water content ([1]; 80% RH): 7.8
Particle morphology ([2]; listed as fexofenadine HCl form XX): small rod shape particles

CC(C)(C(=O)O)c1ccc(C(O)CCCN2CCC(C(O)(c3ccccc3)c3ccccc3)CC2)cc1 (centres unmarked) [Fexofenadine HCl form I, fexofenadine hydrochloride, reference compound]
Particle morphology ([2]; listed as fexofenadine HCl form I): needles morphology

CC(C)(C(=O)O)c1ccc(C(O)CCCN2CCC(C(O)(c3ccccc3)c3ccccc3)CC2)cc1 (centres unmarked) [mixture of Fexofenadine HCl Form XVI and Fexofenadine HCl Fo] [fexofenadine hydrochloride]
Water content ([3]; 0% RH): 4.2
Crystal Form content by XRD ([3]; 0% RH, hydrochloride): 85% XVI, 15% Form XX
Water content ([3]; 20% RH): 7.0
Crystal Form content by XRD ([3]; 20% RH, hydrochloride): 93% XVI, 7% Form XX
Water content ([3]; 40% RH): 7.3
Crystal Form content by XRD ([3]; 40% RH, hydrochloride): 96% XVI, 4% Form XX
Water content ([3]; 60% RH): 7.3
Crystal Form content by XRD ([3]; 60% RH, hydrochloride): 96% XVI, 4% Form XX
Crystal Form content by XRD ([3]; 80% RH): XVI
Water content ([3]; 80% RH): 8.3

CC(C)(C(=O)O)c1ccc(C(O)CCCN2CCC(C(O)(c3ccccc3)c3ccccc3)CC2)cc1 (centres unmarked) [Fexofenadine HCl Form XVI, fexofenadine hydrochloride]
Water content ([3]; 0% RH): 4.2
Crystal Form content by XRD ([3]; 0% RH, hydrochloride): mixture of Fexofenadine HCl Form XVI and Fexofenadine HCl Form XX
Water content ([3]; 20% RH): 7.0
Crystal Form content by XRD ([3]; 20% RH, hydrochloride): XVI
Water content ([3]; 40% RH): 7.3
Crystal Form content by XRD ([3]; 40% RH, hydrochloride): XVI
Water content ([3]; 60% RH): 7.3
Crystal Form content by XRD ([3]; 60% RH, hydrochloride): XVI
Crystal Form content by XRD ([3]; 80% RH): XVI
Water content ([3]; 80% RH): 8.3
Resulted Form ([4]; 65 C.): XVI
Resulted Form ([4]; 80 C.): XVI + Amorphous
Resulted Form ([4]; 100 C., hydrochloride): mixture of Fexofenadine HCl Form XVI and amorphous Form
Resulted Form ([4]; 100 C., listed as XVI, hydrochloride): XVI + Amorphous
